Tested on: Plasmodium berghei
Experiment: Luciferase/luciferin-expressing antifolate-resistant parasites were used to infect a culture of HepG2 cells that were pre-incubated with compounds. Infected hepatocytes emit light due to the luciferase reaction. Assay results are presented as the percent inhibition of light emission compared to control. […]
Format: functional
Settings: sporozoite; for IC90: read-out: LUCIFERASE INFECTION ASSAY - IC90
[1] = read-out: LUCIFERASE INFECTION ASSAY - IC50

SMILES	IC90 [µM]	also measured
COc1ccc(C2=NNC(=NCc3ccc4c(c3)OCO4)SC2)cc1F	> 10	IC50 (FFLUC_HILL_SLOPE 1.69, FFLUC_R_SQUARED 0.437, PBLUC_HILL_SLOPE 4.83, PBLUC_R_SQUARED 0.0332, read-out: LUCIFERASE INFECTION ASSAY - IC50): 8.77 µM
FC(F)(F)Oc1ccc(-c2ccc(OCCCc3ccccn3)nc2)cc1	> 8.82	IC50 (HEPG2TOX_HILL_SLOPE 2.06, HEPG2TOX_R_SQUARED 0.963, PBLUC_HILL_SLOPE 4.51, PBLUC_R_SQUARED 0.157, read-out: LUCIFERASE INFECTION ASSAY - IC50): 6.75 µM
Cc1c(-c2ccccc2)sc2ncnc(NCc3nnc4ccccn34)c12	> 10	IC50 (HEPG2TOX_HILL_SLOPE 2.41, HEPG2TOX_R_SQUARED 0.925, PBLUC_HILL_SLOPE 1.56, PBLUC_R_SQUARED 0.71, read-out: LUCIFERASE INFECTION ASSAY - IC50): 2.86 µM
COc1ccc(F)cc1CN(Cc1ccc(C(=O)NC2CC2)cc1)Cc1ccco1	0.722	IC50 (HEPG2TOX_HILL_SLOPE 2.87, HEPG2TOX_R_SQUARED 0.785, PBLUC_HILL_SLOPE 1.38, 16.4, PBLUC_R_SQUARED 0.804, 0.717, read-out: LUCIFERASE INFECTION ASSAY - IC50): 0.286 µM
COc1ccc(-c2cn3c(-c4ccc5ncccc5c4)cnc3cn2)cn1	4.4	IC50 (HEPG2TOX_HILL_SLOPE 1.73, HEPG2TOX_R_SQUARED 0.987, PBLUC_HILL_SLOPE 1.52, PBLUC_R_SQUARED 0.763, read-out: LUCIFERASE INFECTION ASSAY - IC50): 1.04 µM
Fc1cccc(-c2cc3c(Nc4ccccn4)nccc3[nH]2)c1	9.13	IC50 (HEPG2TOX_HILL_SLOPE 13.8, HEPG2TOX_R_SQUARED 0.872, PBLUC_HILL_SLOPE 30.4, PBLUC_R_SQUARED 0.0497, read-out: LUCIFERASE INFECTION ASSAY - IC50): 8.5 µM
O=c1c(Cl)c(Cl)cnn1-c1cc(Cl)cc(Cl)c1	4.28	IC50 (FFLUC_HILL_SLOPE 2.56, FFLUC_R_SQUARED 0.592, HEPG2TOX_HILL_SLOPE 5.14, HEPG2TOX_R_SQUARED 0.846, PBLUC_HILL_SLOPE 13.3, PBLUC_R_SQUARED 0.218, read-out: LUCIFERASE INFECTION ASSAY - IC50): 3.63 µM
Cc1c(NC(=O)c2c(F)cccc2F)cc2c(c1[N+](=O)[O-])C(C)(C)CC2(C)C	> 8.5	IC50 (PBLUC_HILL_SLOPE 39, PBLUC_R_SQUARED 0.724, read-out: LUCIFERASE INFECTION ASSAY - IC50): > 8.5 µM
COc1ccc2c(c1)C(=O)C(=O)N2Cc1ccccc1Cl	> 10.9	IC50 (FFLUC_HILL_SLOPE 0.896, FFLUC_R_SQUARED 0.182, read-out: LUCIFERASE INFECTION ASSAY - IC50): > 10.9 µM
COc1ccc(C(C)C)cc1-c1cnc(N)c(-c2cccc(C(F)(F)F)c2)c1	> 8.54	IC50 (HEPG2TOX_HILL_SLOPE 7.33, HEPG2TOX_R_SQUARED 0.431, PBLUC_HILL_SLOPE 11.3, PBLUC_R_SQUARED 0.541, read-out: LUCIFERASE INFECTION ASSAY - IC50): 8.01 µM
CCCn1nc(C(=O)OCC(=O)c2cc(C)n(CC(F)(F)F)c2C)c2ccccc2c1=O	> 10	IC50 (PBLUC_HILL_SLOPE 0.53, PBLUC_R_SQUARED 0.241, read-out: LUCIFERASE INFECTION ASSAY - IC50): > 10 µM
Cc1cnc(NC(=O)c2ccc3nccnc3c2)s1	> 10	IC50 (HEPG2TOX_HILL_SLOPE 19.6, HEPG2TOX_R_SQUARED 0.459, read-out: LUCIFERASE INFECTION ASSAY - IC50): > 10 µM
O=C1C(=C(O)c2ccc(OC(F)F)cc2)Sc2ccccc21	> 10	IC50 (PBLUC_HILL_SLOPE 4.86, PBLUC_R_SQUARED 0.465, read-out: LUCIFERASE INFECTION ASSAY - IC50): 9.12 µM
CC1(C(=O)NCc2cccs2)Cc2c(-c3ccccc3)ccnc2O1 (stereo not given)	> 9.42	IC50 (FFLUC_HILL_SLOPE 0.144, FFLUC_R_SQUARED 0.18, HEPG2TOX_HILL_SLOPE 3.88, HEPG2TOX_R_SQUARED 0.701, PBLUC_HILL_SLOPE 8.35, PBLUC_R_SQUARED 0.0479, read-out: LUCIFERASE INFECTION ASSAY - IC50): 7.82 µM
Oc1c(Br)cc(Cl)cc1/C=C/c1ccc2cccc(O)c2n1	> 8.76	IC50 (PBLUC_HILL_SLOPE 4.36, PBLUC_R_SQUARED 0.823, read-out: LUCIFERASE INFECTION ASSAY - IC50): 5.59 µM
COc1cc(Nc2nccc3c2cc(-c2ccc(C(=O)N(C)C)cc2)n3C)cc(C(F)(F)F)c1	4.64	IC50 (PBLUC_HILL_SLOPE 8.8, PBLUC_R_SQUARED 0.371, read-out: LUCIFERASE INFECTION ASSAY - IC50): 3.62 µM
COc1cc(-c2cnc3cnc(-c4ccc(C(=O)NCCN(C)C)cc4)cn23)ccc1O	> 7.65	IC50 [1]: > 7.65 µM
Nc1nc2c(c(C(F)(F)F)n1)CCc1ccccc1-2	> 12.4	IC50 [1]: > 12.4 µM
CCCOc1ccc(C(=O)CCC(=O)NNC(=O)c2ccncc2)cc1	5.4	IC50 (HEPG2TOX_HILL_SLOPE 2.12, HEPG2TOX_R_SQUARED 0.868, PBLUC_HILL_SLOPE 86, PBLUC_R_SQUARED 0.219, read-out: LUCIFERASE INFECTION ASSAY - IC50): 5.26 µM
O=C(Nc1ccc(F)c(Cl)c1)N1CCc2nc(Nc3cc(Cl)cc(Cl)c3)ncc2C1	> 7.07	IC50 [1]: > 7.07 µM

SMILES	IC90 [µM]	also measured
CCOC(=O)c1c(CC(C)C)csc1NC(=O)CNc1ccc(-n2cnnn2)cc1	> 10	IC50 (FFLUC_HILL_SLOPE 13, FFLUC_R_SQUARED 0.249, read-out: LUCIFERASE INFECTION ASSAY - IC50): > 10 µM
O=C1C=C(NCc2ccccc2)CC(c2ccc(Cl)cc2)C1 (stereo not given)	> 10.6	IC50 (HEPG2TOX_HILL_SLOPE 2.56, HEPG2TOX_R_SQUARED 0.714, PBLUC_HILL_SLOPE 1.97, PBLUC_R_SQUARED 0.212, read-out: LUCIFERASE INFECTION ASSAY - IC50): 6.81 µM
CCC(C)(C)c1ccc(Oc2ccc(NC(=O)COC(=O)c3ccc(Cl)c(S(N)(=O)=O)c3)cc2)cc1	> 10	IC50 (PBLUC_HILL_SLOPE 2.55, PBLUC_R_SQUARED 0.138, read-out: LUCIFERASE INFECTION ASSAY - IC50): 5.78 µM
O=C(O)C1CC=CCC1C(=O)NN=c1nc[nH]c2ccccc12 (stereo not given)	> 10	IC50 [1]: > 10 µM
CCCCCCc1nc(SCC(=O)Nc2cc(C)on2)c2c(=O)n(C)c(=O)n(CCC)c2n1	> 10	IC50 [1]: > 10 µM
COc1cc(NC(=O)c2sccc2Oc2ccc(C(F)(F)F)cc2[N+](=O)[O-])c(Cl)cc1Cl	5.34	IC50 (FFLUC_HILL_SLOPE 15.3, FFLUC_R_SQUARED 0.803, PBLUC_HILL_SLOPE 1.96, PBLUC_R_SQUARED 0.575, read-out: LUCIFERASE INFECTION ASSAY - IC50): 1.74 µM
CC(C)(C)c1ccc(OCc2nc(=O)cc(Nc3ccccc3Cl)[nH]2)cc1	> 8.6	IC50 (FFLUC_HILL_SLOPE 11.4, FFLUC_R_SQUARED 0.169, HEPG2TOX_HILL_SLOPE 0.949, HEPG2TOX_R_SQUARED 0.863, read-out: LUCIFERASE INFECTION ASSAY - IC50): > 8.6 µM
Cc1nnc(SCC(=O)Nc2ccc(Cl)cn2)n(N)c1=O	> 10	IC50 [1]: > 10 µM
CCc1sc(C(=O)NNC(=O)CN2CCN(c3ccc([N+](=O)[O-])cc3)CC2)cc1C	> 10	IC50 [1]: > 10 µM
COc1cc(-c2cnc3cnc(-c4ccc(CNc5ccccc5)cc4)cn23)cc(OC)c1OC	5.78	IC50 (PBLUC_HILL_SLOPE 3.28, PBLUC_R_SQUARED 0.672, read-out: LUCIFERASE INFECTION ASSAY - IC50): 2.96 µM
Cc1nc(Sc2ncnc3scc(-c4ccc(F)cc4)c23)oc1C	> 10	IC50 [1]: > 10 µM
O=C(COC(=O)C1Cc2ccccc2CN1S(=O)(=O)/C=C/c1ccccc1)c1ccccc1 (stereo not given)	> 10	IC50 (PBLUC_HILL_SLOPE 0.237, PBLUC_R_SQUARED 0.0458, read-out: LUCIFERASE INFECTION ASSAY - IC50): > 10 µM
COc1cccc(-n2c(C)cc(C(=O)CSc3ncc(C#N)c(N)n3)c2C)c1	> 8.39	IC50 [1]: > 8.39 µM
COc1cc(/C=N/NC(=S)NC2CC3CC2C2C=CCC32)ccc1O (stereo not given)	> 9.23	IC50 (PBLUC_HILL_SLOPE 5.25, PBLUC_R_SQUARED 0.0239, read-out: LUCIFERASE INFECTION ASSAY - IC50): > 9.23 µM
CNC(=O)c1ccc(/C=C/C(=O)c2ccc3cccc4c3c2CC4)cc1	> 10	IC50 [1]: > 10 µM
Cn1c(-c2ccco2)nc2cnc(Nc3cccc(C(F)(F)F)c3)cc21	> 10	IC50 (FFLUC_HILL_SLOPE 19, FFLUC_R_SQUARED 0.549, HEPG2TOX_HILL_SLOPE 17, HEPG2TOX_R_SQUARED 0.382, PBLUC_HILL_SLOPE 1.81, PBLUC_R_SQUARED 0.343, read-out: LUCIFERASE INFECTION ASSAY - IC50): 8.8 µM
CCOC(=O)c1cc(-c2csc(Nc3c(C)cc(C)cc3C)n2)on1	> 9.23	IC50 (PBLUC_HILL_SLOPE 14.6, PBLUC_R_SQUARED 0.157, read-out: LUCIFERASE INFECTION ASSAY - IC50): 9.07 µM
Fc1ccc(CSc2nnnn2-c2ccc3c(c2)OCO3)c(Cl)c1	8.12	IC50 (HEPG2TOX_HILL_SLOPE 1.94, HEPG2TOX_R_SQUARED 0.929, PBLUC_HILL_SLOPE 1.23, PBLUC_R_SQUARED 0.52, read-out: LUCIFERASE INFECTION ASSAY - IC50): 1.37 µM
CCOc1cc2c(cc1CN(Cc1nc(=O)c3cc(-c4ccccc4)sc3[nH]1)Cc1nc(=O)c3cc(-c4ccccc4)sc3[nH]1)OC(C)C2 (stereo not given)	> 10	IC50 [1]: > 10 µM
CC(C)NC(=O)c1c(NC(=O)c2ccc(C(F)(F)F)cc2)nc2ccccn12	1.46	IC50 (FFLUC_HILL_SLOPE 4.65, FFLUC_R_SQUARED 0.42, HEPG2TOX_HILL_SLOPE 0.706, HEPG2TOX_R_SQUARED 0.931, PBLUC_HILL_SLOPE 2.98, PBLUC_R_SQUARED 0.635, read-out: LUCIFERASE INFECTION ASSAY - IC50): 0.698 µM

— ChEMBL document CHEMBL4483862, “Open-source discovery of chemical leads for next-generation chemoprotective antimalarials” (2018)
